Tested on: adenylate cyclase
Assay: cAMP assay of cryopreserved AD293 cells, forskolin stimulation
Assay type: cell-based, human
Description: As a control, rise in intracellular cAMP concentrations was also separately monitored when the ubiquitously expressed adenylate cyclase activity was challenged with its respective agonist forskolin. In the AD293 cell line only the adenylate cyclase activity was monitored.
As the DiscoveRx assay systems are designed to monitor intracellular cAMP concentrations the assay medium is supplemented with the general phosphodiesterase inhibitor isobutylmethylxanthine (IBMX) at a final concentration of 1 mM.
Forskolin assay—Forskolin (Sigma F6886-10 mg) was dissolved in DMSO to a stock concentration of 10 mM. This was then serially diluted using half-log dilutions to generate a final forskolin concentration range in the assay medium ranging from 316 μM-3.16 nM.
DiscoveRx HITHUNTER™ cAMP II assay—This was performed according to the manufacturer's instructions and briefly involved the following. On resurrection from storage at −140° C., cells frozen on cell culture treated 96-well plates were allowed to thaw. On defrosting the cryopreservation medium was removed and the cells washed twice with PBS. […]
Typically for an assay performed in a 96-well cell culture treated plate 20,000 cells were used. […] The assay plates were incubated at room temperature for 4 hrs and the cAMP concentration determined by monitoring the generation of the luminescent signal using the LEADSEEKER™ Instrument platform.

C=C[C@@]1(C)CC(=O)[C@]2(O)[C@@]3(C)[C@@H](O)CCC(C)(C)[C@@H]3[C@H](O)[C@H](OC(C)=O)[C@@]2(C)O1 [forskolin, Forskolin]
S:B (minus poly lysine): 2.5
S:B (plus poly-lysine): 3.0
